Experiment [1] relates to Escherichia coli. As to the kind of experiment: Susceptibility of Escherichia coli K12 MG1655 by agar dilution method. In kind it is functional.
Experiment [2] concerns Escherichia coli. Briefly: Susceptibility of Escherichia coli K12 MG1655 in presence of 10 mM glutathione by agar dilution method relative to control. The experiment is classed as functional.
In experiment [3] the test system is Escherichia coli. Briefly: Increase in ROS levels in Escherichia coli K12 MG1655 assessed as ratio of ROS with antibiotic to ROS without antibiotic. The experiment is classed as functional.
Experiment [4] has as its system Escherichia coli. As to the kind of experiment: Decrease in sensitivity of Escherichia coli K12 MG1655 assessed as reduction in zone of inhibition in presence of 10 mM glutathione by disk diffusion method. The experiment is classed as functional, organism-based.
The subject of experiment [5] is Escherichia coli. As to the kind of experiment: Decrease in sensitivity of Escherichia coli K12 MG1655 assessed as reduction in zone of inhibition in presence of 10 mM ascorbic acid by disk diffusion method. The experiment is classed as functional, organism-based.
Experiment [6] concerns Escherichia coli. Briefly: Antibacterial activity against Escherichia coli K12 MG1655 in presence of ascorbic acid by agar dilution method relative to control. In kind it is functional.
Experiment [7] has as its system Escherichia coli. Briefly: Antibacterial activity against Escherichia coli K12 W3110. The experiment is classed as functional.
The subject of experiment [8] is Escherichia coli. Briefly: Antibacterial activity against Escherichia coli K12 XL1 Blue. In kind it is functional.
Experiment [9] has as its system Escherichia coli. Briefly: Antibacterial activity against Escherichia coli K12 DH5alpha. In kind it is functional.
Experiment [10] relates to Escherichia coli. As to the kind of experiment: Antibacterial activity against Escherichia coli K12 W3110 in presence of 10 mM ascorbic acid. The experiment is classed as functional.
The subject of experiment [11] is Escherichia coli. Briefly: Antibacterial activity against Escherichia coli K12 XL1 Blue in presence of 10 mM ascorbic acid. The experiment is classed as functional.
Experiment [12] relates to Escherichia coli. As to the kind of experiment: Antibacterial activity against Escherichia coli K12 DH5alpha in presence of 10 mM ascorbic acid. In kind it is functional.

In brackets after ≈: the same amount, converted by molar mass. Activity calls are given as the source filed them. The calls are words filed in the database; no cut-off is given here.

Regarding `O=C(N[C@H](CO)[C@H](O)c1ccc([N+](=O)[O-])cc1)C(Cl)Cl` [CHLORAMPHENICOL], the values for the minimal inhibitory concentration (MIC) in experiment [1] and in [2] were 8 µg/mL (≈ 24.8 µM) and 4 µg/mL, respectively.
Turning to `O=C(O)c1cn(C2CC2)c2cc(N3CCNCC3)c(F)cc2c1=O` [CIPROFLOXACIN], the Ratio in experiment [3] stood at 1.1.
`NC[C@H]1O[C@H](O[C@H]2[C@H](O)[C@@H](O[C@H]3O[C@H](CO)[C@@H](O)[C@H](N)[C@H]3O)[C@H](N)C[C@@H]2N)[C@H](O)[C@@H](O)[C@@H]1O` [KANAMYCIN]: the MIC in experiment [1] is 6 µg/mL (≈ 12.4 µM); in experiment [2], more than 250 µg/mL. Moreover, the Ratio in [3] turned out to be 0.87.
Turning to `CC1=CC(=O)c2ccccc2C1=O` [MENADIONE], in experiment [3], the Ratio worked out at 2.02.
Regarding `CN[C@@H]1[C@H](O)[C@H](NC)[C@H]2O[C@@]3(O)C(=O)C[C@@H](C)O[C@H]3O[C@@H]2[C@H]1O` [SPECTINOMYCIN], the MIC in experiment [1] is 20 µg/mL (≈ 60.2 µM); in [2], more than 300 µg/mL.
As for `CN[C@@H]1[C@H](O[C@H]2[C@H](O[C@H]3[C@H](O)[C@@H](O)[C@H](N=C(N)N)[C@@H](O)[C@@H]3N=C(N)N)O[C@@H](C)[C@]2(O)C=O)O[C@@H](CO)[C@H](O)[C@H]1O` [STREPTOMYCIN], the outcome in experiment [4] and in experiment [5] was Active. Moreover, the minimum inhibitory concentration (MIC) in experiment [1] is 8 µg/mL (≈ 13.8 µM); in [6], 20 µg/mL; in experiment [2], more than 250 µg/mL; in experiment [7], 4 µg/mL (≈ 6.88 µM); in [8] it was 4 µg/mL (≈ 6.88 µM); in experiment [9] it was 4 µg/mL (≈ 6.88 µM). The MIC in [10], in experiment [11] and in [12] was more than 8 µg/mL in each case. Moreover, in experiment [3], the Ratio stood at 0.78.
For the compound `CN(C)[C@@H]1C(O)=C(C(N)=O)C(=O)[C@@]2(O)C(O)=C3C(=O)c4c(O)cccc4[C@@](C)(O)[C@H]3C[C@@H]12` [TETRACYCLINE], the MIC in [1] was found to be 4 µg/mL (≈ 9 µM); in experiment [2], 4 µg/mL. Also, the Ratio in experiment [3] is 0.96.
Take GENTAMICIN: the MIC in experiment [1] is 2 µg/mL; in experiment [2] it was more than 200 µg/mL. In addition, the Ratio in experiment [3] was determined as 1.

These data come from ChEMBL document CHEMBL1142094, “Effects of glutathione and ascorbic acid on streptomycin sensitivity of Escherichia coli” (2007).
